Data reported in patent US20060251689A1, “Treatment or prevention of pruritus” (Astion Development A/S, priority 2005, published 2006).
Entries after “also recorded” stand apart in the source; their conditions may differ.

Assays:
[1] = system: skin; conditions: reported in the literature; cited from earlier work
[2] = molecular target: T1, Protein Tyrosine Kinase, SYK (Homo sapiens, UniProt P43405); test: enzyme assay, Protein Tyrosine Kinase SYK (MDS Pharma Service No 155761); assay type: biochemical; conditions: in words, comparison
T1 construct: purchased MDS Pharma Services (printed once as 'MSD Pharma Services') 155761
Method: (§1) The enzyme assays were conducted by MSD Pharma Services.

[3] = molecular target: T2, Protein Tyrosine Kinase, ZA70 (ZAP-70) (Homo sapiens, UniProt P43403); test: enzyme assay, Protein Tyrosine Kinase ZA70 (ZAP-70) (MDS Pharma Service No 155987); assay type: biochemical; conditions: in words, comparison
T2 construct: purchased MDS Pharma Services (printed once as 'MSD Pharma Services') 155987
T2 sequence (P43403 1-619): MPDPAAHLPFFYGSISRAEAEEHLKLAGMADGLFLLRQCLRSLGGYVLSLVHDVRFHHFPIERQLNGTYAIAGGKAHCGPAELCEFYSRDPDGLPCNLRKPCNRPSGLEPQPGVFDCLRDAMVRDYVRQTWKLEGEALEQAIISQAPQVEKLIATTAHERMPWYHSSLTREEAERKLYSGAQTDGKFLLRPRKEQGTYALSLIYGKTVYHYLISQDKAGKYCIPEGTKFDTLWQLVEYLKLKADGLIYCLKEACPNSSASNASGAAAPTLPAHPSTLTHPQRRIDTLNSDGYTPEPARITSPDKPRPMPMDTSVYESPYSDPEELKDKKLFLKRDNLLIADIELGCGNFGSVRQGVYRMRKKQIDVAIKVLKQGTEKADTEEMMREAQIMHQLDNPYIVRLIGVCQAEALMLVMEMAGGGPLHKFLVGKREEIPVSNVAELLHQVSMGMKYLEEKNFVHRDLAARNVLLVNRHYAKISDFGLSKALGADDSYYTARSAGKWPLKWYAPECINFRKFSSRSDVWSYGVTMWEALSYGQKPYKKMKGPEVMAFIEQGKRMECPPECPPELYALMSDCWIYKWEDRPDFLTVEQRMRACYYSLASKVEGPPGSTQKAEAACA
Method: as §1

[4] = system: Phosphodiesterase PDE IV; test: enzyme assay, Phosphodiesterase PDE IV (MDS Pharma Service No 154000); assay type: biochemical; conditions: in words, comparison
[5] = system: moderate to severe inflammation following treatment with cryotherapy; conditions: topically applied; cited from earlier work
[6] = system: oxazolone induced ear inflammation in mice; test: Oxazolone induced mouse ear oedema assay; assay type: in vivo
Method: This screening method is commonly employed for screening and evaluation of anti-inflammatory drugs, in particular with respect to the inflammation seen in contact dermatitis. Betamethasone-17 valerate was used as the positive control. […] Betamethason was administered topically in quantities of 20 μg/ear. Betamethason was applied in the commercial form Celeston valerate® 0.1%. All groups were immunised with 20 μl oxazolone, 1.6% in ethanol 96% (w/v) on the left and the right ear. The ear thickness of all mice on both the left and right side was measured with an electronic measuring gauge. All groups were challenged with 20 μl oxazolone (1.6% in ethanol 96% (w/v)) on the left ear and the right ear. Vehicle (acetone) or test article solutions were administered 20 minutes before and 20 minutes after oxazolone challenge. 24 hours after oxazolone challenge the ear thickness of all mice was measured with an electronic measuring gauge. Mean thickness of the ears and standard deviations were calculated. Ear swelling was calculated as the difference between the ear thickness day 7 and day 8. […] Differences in ear swelling between the vehicle treated group and the other groups were tested for significance employing a non-parametric statistical method of analysis, the Mann-Whitney U test. The required level of significance was p<0.05. […] Both test articles were applied in a dose of 500 μg/ear and dissolved in 96% ethanol. Betamethason, as the positive control was administered topically in quantities of 20 μg/ear.

[7] = system: undamaged skin area; test: Acute dermal irritation; assay type: in vivo
Method: The sample was applied at a dose of 0.5 mL, on an undamaged skin area of the right flank of each animal. The patch was secured in position with a strip of surgical adhesive tape.
On the left flank an untreated area served as the control.
The skin reactions were evaluated after 1 hour and then after 24, 48 and 72 hours following removal of the patch according to the following grading scale:
Erythema (0: No erythema, 1: Slight(barelyperceptible)erythema, 2: Definite erythema, 3: Moderate to severe erythema, 4: Severe erythema (purpie) with formation of eschars (deep lesions) preventing erythema from being grading).
Oedema (0: No oedema, 1: Very slight (barely perceptible) oedema, 2: Slight oedema (contour clearly defined), 3: Moderate oedema (thickness), 4: Severe oedema (thickness greater than 1 mm, surface larger than zone of application)

[8] = system: Albino guinea pigs of Dunkin-Hartley strain; conditions: guinea pig, in vivo
Method: Test for skin sensitization is carried out according to the Magnusson and Kligman method (J. Invest. Dermatol. 1969. 52, 268-276) and in accordance with O.E.C.D. Guideline No. 406 of Jul. 17th, 1992, and the test method B.6 of the 96/54 E.E.C Directive.
Albino guinea pigs of Dunkin-Hartley strain were exposed to the test item after an acclimatisation period of at least five days.
The Maximum Non Necrotizing Concentration (M.N.N.C.) was determined by injecting by intradermal route the following concentrations: 2.5%, 1.25%, 0.625%, 0.3125%, 0.1562% and 0.078% diluted in physiological saline solution.
Pre-Maximum Non Irritant Concentration (pre-M.N.I.C.) was determined by application of the test item under an occlusive dressing during 24 hours, at the following concentrations: 2.5%, 1.25%, 0.625%, 0.3125% diluted in physiological saline solution.
Maximum Non Irritant Concentration (M.N.I.C.) was determined by initially establishing an induction phase by intradermal injection with a physiological saline solution and by topical application of distilled water followed by a 18-day rest phase. In the challenge phase where the test item is under occlusive dressing for 24 hours, the test item was applied to the skin of the Albino guinea pigs at the following concentrations: 2.5%, 1.25%, 0.625%, 0.3125% diluted in physiological saline solution.

[9] = system: experimental contact dermatitis; conditions: topically applied; cited from earlier work

## O=C(O)Cc1ccccc1Nc1c(Cl)cccc1Cl [Diclofenac]
[1]
  cutaneous side effects: irritant-type contact dermatitis may develop

## CCCCOc1ccc(CC(=O)NO)cc1 [Bufexamac]
[1]
  cutaneous side effects: cause contact allergy; also recorded: major contact allergens
[2]
  inhibitory effect on Protein Tyrosine Kinase SYK: only exhibits inhibitory effect on the PDE-IV enzyme
[3]
  inhibitory effect on Protein Tyrosine Kinase ZAP-70: only exhibits inhibitory effect on the PDE-IV enzyme
[4]
  inhibitory effect on the PDE-IV enzyme: inhibitory effect

## CCC(=O)O[C@]1(C(=O)CCl)[C@@H](C)C[C@H]2[C@@H]3CCC4=CC(=O)C=C[C@]4(C)[C@@]3(F)[C@@H](O)C[C@@]21C [clobetasol propionate]
[5]
  relieving the erythema and oedema: proved to have effect

## CC(=O)Oc1ccccc1C(=O)O [aspirin]
[1]
  cutaneous side effects: may induce urticarial reactions

## CN1C(C(=O)Nc2ccccn2)=C(O)c2ccccc2S1(=O)=O [piroxicam]
[1]
  cutaneous side effects: phototoxic or photoallergic dermatitis

## CCCCC(=O)O[C@]1(C(=O)CO)[C@@H](C)C[C@H]2[C@@H]3CCC4=CC(=O)C=C[C@]4(C)[C@@]3(F)[C@@H](O)C[C@@]21C [Betamethasone 17-valerate]
[6]; 20 μg/ear topical (Celeston valerate 0.1%), 24 hours after challenge
  % inhibition of ear swelling: 66%

## CC(C(=O)O)c1cccc(C(=O)c2ccccc2)c1 (stereo not shown) [Ketoprofen]
[1]
  cutaneous side effects: major contact allergens

## O=C(O)CCc1nc(-c2ccccc2)c(-c2ccccc2)o1 [Oxaprozin, 4,5-diphenyl-2-oxazole-propionic acid]
[7]; 2.5% by weight in water (monoethanolamine salt), 0.5 mL, 1, 24, 48 and 72 hours
  cutaneous reactions (erythema and oedema): no cutaneous reactions
[7]; 5% by weight in water (monoethanolamine salt), 0.5 mL, reading time 1 hour
  erythema on the treated area: slight erythema
[7]; 5% by weight, between the 2nd and the 3rd day of the test
  reversibility of the erythema: totally reversible
[6]; Example 7, 500 μg/ear dissolved in 96% ethanol
  inhibition of the formation of ear oedema: statistically significant inhibition

## O=C(O)CCc1nc(-c2ccccc2)c(-c2ccccc2)o1 [Monoethanolamine Oxaprozin]
[6]; 250-1000 μg/ear topical
  inhibition of ear swelling (conclusion in words): dose dependent and highly significant inhibition
[8]
  sensitization, macroscopic cutaneous reactions in the challenge phase: No macroscopic cutaneous reactions attributable to allergy

## COc1ccc2c(c1)c(CC(=O)O)c(C)n2C(=O)c1ccc(Cl)cc1 [indomethacin]
[9]
  response in an animal model of contact dermatitis: has been shown to respond
[1]
  cutaneous side effects: may induce urticarial reactions
[5]
  relieving the erythema and oedema: poor effect
